Structures are written as SMILES.

What all share (assay): Cell proliferation assay (Alamar Blue)
What all share (type): cell-based

One experiment deals with 22RV1. The conditions noted are these: Homo sapiens, 144 h; 22RV1 tumor cell line; 6 days. A digest of the protocol: (§1)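 AlamarBlue fluorescence (ex 560, em 590 nm) after 6-day compound exposure; IC50 by four-parameter fit. Nine 3.16-fold dilutions, top 30 or 100 μM, duplicate wells. Log-phase cells plated at line-optimised density, 4 h pre-incubation.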
Another experiment relates to Alexander cells. The conditions noted are these: 144 h, liver cancer cell line, 6 days. A digest of the protocol: as §1
The test system of a further experiment is HT55. The conditions noted are these: Homo sapiens, 144 h; HT55 tumor cell line; 6 days. A digest of the protocol:
as §1

In another experiment the test system is HUH1. The conditions noted are these: Homo sapiens, HuH-1, 144 h; HUH1 liver cancer cell line; 6 days. A digest of the protocol:
as §1

The test system of a further experiment is HUH7. The conditions noted are these: Homo sapiens, Huh-7, 144 h; HUH7 liver cancer cell line; 6 days. A digest of the protocol:
as §1

A further experiment deals with JHH1. The conditions noted are these: 144 h; JHH1 liver cancer cell line; 6 days. A digest of the protocol: as §1
A further experiment relates to JHH4. The conditions noted are these: JHH-4, 144 h; JHH4 liver cancer cell line; 6 days. A digest of the protocol: as §1
The next experiment concerns JHH5. The conditions noted are these: 144 h; JHH5 liver cancer cell line; 6 days. A digest of the protocol:
as §1

A further experiment has as its system JHH6. The conditions noted are these: 144 h; JHH6 liver cancer cell line; 6 days. A digest of the protocol:
as §1

In another experiment the test system is JHH7. The conditions noted are these: 144 h; JHH7 liver cancer cell line; 6 days. A digest of the protocol:
as §1

A further experiment relates to K562. The conditions noted are these: Homo sapiens, 144 h; K562 tumor cell line; 6 days. A digest of the protocol:
as §1

Another experiment relates to KM12. The conditions noted are these: Homo sapiens, 144 h; KM12 tumor cell line; 6 days. A digest of the protocol: as §1
The test system of another experiment is MDA-MB-435S. The conditions noted are these: Homo sapiens, 144 h; MDA-MB-435S tumor cell line; 6 days. A digest of the protocol:
as §1

In another experiment the test system is MFM-223. The conditions noted are these: Homo sapiens, 144 h; MFM-223 tumor cell line; 6 days. A digest of the protocol:
as §1

A further experiment concerns NCl-H2170. The conditions noted are these: 144 h; NCl-H2170 tumor cell line; 6 days. A digest of the protocol: as §1
Another experiment relates to NCl-H526. The conditions noted are these: 144 h; NCl-H526 tumor cell line; 6 days. A digest of the protocol: as §1
A further experiment concerns NCl-H661. The conditions noted are these: 144 h; NCl-H661 tumor cell line; 6 days. A digest of the protocol: as §1
In a further experiment the test system is NCl-H716. The conditions noted are these: 144 h; NCl-H716 tumor cell line; 6 days. A digest of the protocol: as §1
The subject of another experiment is SNU354. The conditions noted are these: Homo sapiens, SNU-354, 144 h; SNU354 liver cancer cell line; 6 days. A digest of the protocol:
as §1

In another experiment the test system is SNU423. The conditions noted are these: Homo sapiens, SNU-423, 144 h; SNU423 liver cancer cell line; 6 days. A digest of the protocol:
as §1

The test system of the next experiment is SNU475. The conditions noted are these: Homo sapiens, SNU-475, 144 h; SNU475 liver cancer cell line; 6 days. A digest of the protocol:
as §1

The next experiment deals with SNU886. The conditions noted are these: SNU-886, 144 h; SNU886 liver cancer cell line; 6 days. A digest of the protocol:
as §1

The test system of another experiment is T.T. The conditions noted are these: Homo sapiens, TT, 144 h; T.T tumor cell line; 6 days. A digest of the protocol: as §1
A further experiment concerns TE-15. The conditions noted are these: Homo sapiens, 144 h; TE-15 tumor cell line; 6 days. A digest of the protocol:
as §1

As to `Cc1ccc(F)c(NC(=O)Nc2ccc(-c3cccc4c3c(N)nn4C(=O)CCCCCCCCCCCNC(=O)C[C@H](N)C(=O)N[C@@H](CCC(=O)N[C@@H](CCC(=O)N[C@@H](CCC(=O)N[C@@H](CCC(=O)N[C@@H](CCC(=O)N[C@@H](CCC(=O)N[C@@H](CCC(=O)N[C@@H](CCC(=O)N[C@@H](CCC(=O)O)C(=O)O)C(=O)O)C(=O)O)C(=O)O)C(=O)O)C(=O)O)C(=O)O)C(=O)O)C(=O)O)cc2)c1` [Compound 9], the IC50 in the experiment on 22RV1 is above 100 µM; in the experiment on Alexander cells, above 100 µM; with HT55 it was above 100 µM; in the experiment on HUH1, 52.4 µM; in the experiment with HUH7 it was 30.3 µM; in the experiment with JHH1, above 100 µM. For the same compound, the IC50 in the experiment on JHH4 is above 100 µM; in the experiment with JHH5, above 100 µM; in the experiment with JHH6, 65.3 µM; with JHH7 it was 42.2 µM; in the experiment with K562 it was above 100 µM; with KM12, 21.8 µM. Further, the IC50 is above 100 µM in the experiment on MDA-MB-435S; 38.3 µM in the experiment on MFM-223; 84 µM in the experiment with NCl-H2170; above 100 µM in the experiment with NCl-H526; above 100 µM in the experiment with NCl-H661; 43.1 µM with NCl-H716. Further, the concentration for half-maximal inhibition (IC50) is 67.3 µM in the experiment on SNU354; above 100 µM with SNU423; 77.8 µM with SNU475; above 100 µM with SNU886; above 100 µM with T.T; 88.9 µM in the experiment with TE-15.
Take `Cc1ccc(F)c(NC(=O)Nc2ccc(-c3cccc4c3c(N)nn4C(=O)CCCCCNC(=O)C[C@H](N)C(=O)N[C@@H](CCC(=O)N[C@@H](CCC(=O)N[C@@H](CCC(=O)N[C@@H](CCC(=O)N[C@@H](CCC(=O)N[C@@H](CCC(=O)N[C@@H](CCC(=O)N[C@@H](CCC(=O)N[C@@H](CCC(=O)O)C(=O)O)C(=O)O)C(=O)O)C(=O)O)C(=O)O)C(=O)O)C(=O)O)C(=O)O)C(=O)O)cc2)c1` [Compound 6]: the IC50 is above 100 µM with 22RV1; above 100 µM in the experiment with Alexander cells; above 100 µM with HT55; above 100 µM in the experiment on HUH1; 92.1 µM with HUH7; above 100 µM with JHH1. For the same compound, the IC50 was 79 µM in the experiment with JHH4; above 100 µM in the experiment with JHH5; above 100 µM with JHH6; 83.2 µM in the experiment on JHH7; 74.3 µM in the experiment with K562; 70 µM in the experiment with KM12. The IC50 with MDA-MB-435S was above 100 µM; with MFM-223 it was 72.2 µM; with NCl-H2170 it was above 100 µM; with NCl-H526, above 100 µM; with NCl-H661, above 100 µM; in the experiment with NCl-H716 it was 92.1 µM. Besides, the IC50 with SNU354, with SNU423, in the experiment on SNU475, in the experiment on SNU886, in the experiment on T.T and in the experiment on TE-15 was above 100 µM in each case.
On to `Cc1ccc(F)c(NC(=O)Nc2ccc(-c3cccc4c3c(N)nn4C(=O)C[C@H](N)C(=O)N[C@@H](CCC(=O)O)C(=O)O)cc2)c1` [Compound 1], for which the IC50 in the experiment on 22RV1 turned out to be 6.69 µM; with Alexander cells, 5.5 µM; with HT55 it was 16.8 µM; in the experiment with HUH1 it was 4.42 µM; in the experiment with HUH7 it was 3.22 µM; with JHH1, 8.15 µM. Further, the IC50 in the experiment with JHH4 came out at 2.62 µM; with JHH5, 15.2 µM; in the experiment with JHH6 it was 3 µM; in the experiment on JHH7, 1.81 µM; in the experiment on K562 it was 3.99 µM; in the experiment with KM12, 1.89 µM. The concentration for half-maximal inhibition (IC50) was 18.9 µM in the experiment on MDA-MB-435S; 8.89 µM in the experiment with MFM-223; 0.97 µM with NCl-H2170; 6.6 µM with NCl-H526; 7.09 µM with NCl-H661; 1.82 µM in the experiment on NCl-H716. Moreover, the IC50 is 3.91 µM in the experiment on SNU354; 9.03 µM with SNU423; 4.85 µM in the experiment on SNU475; 1.47 µM in the experiment with SNU886; 5.22 µM in the experiment with T.T; 7.59 µM in the experiment with TE-15.
Turning to `Cc1ccc(F)c(NC(=O)Nc2ccc(-c3cccc4c3c(N)nn4C(=O)C[C@H](N)C(=O)O)cc2)c1` [Compound 10], the half-inhibitory concentration (IC50) with 22RV1 was 6.21 µM; in the experiment on Alexander cells, 5.31 µM; in the experiment on HT55, 14.9 µM; in the experiment on HUH1, 3.47 µM; in the experiment on HUH7 it was 2.89 µM; in the experiment on JHH1, 7.43 µM. Besides, the IC50 in the experiment on JHH4 turned out to be 2.31 µM; in the experiment with JHH5 it was 12.4 µM; with JHH6 it was 2.46 µM; with JHH7, 1.65 µM; in the experiment with K562 it was 3.04 µM; with KM12, 1.47 µM. Further, the IC50 in the experiment on MDA-MB-435S was 13.3 µM; in the experiment with MFM-223, 5.63 µM; in the experiment on NCl-H2170 it was 1.24 µM; in the experiment on NCl-H526, 4.39 µM; in the experiment on NCl-H661 it was 5.47 µM; in the experiment on NCl-H716 it was 1.93 µM. Further, the IC50 stood at 4.57 µM in the experiment with SNU354; 8.62 µM with SNU423; 3.88 µM in the experiment with SNU475; 1.45 µM in the experiment with SNU886; 4.37 µM in the experiment on T.T; 6.31 µM in the experiment with TE-15.
As for `Cc1ccc(F)c(NC(=O)Nc2ccc(-c3cccc4c3c(N)nn4C(=O)CCCCCNC(=O)C[C@H](N)C(=O)N[C@@H](CCC(=O)O)C(=O)O)cc2)c1` [Compound 4], the IC50 in the experiment on 22RV1 is above 100 µM; in the experiment with Alexander cells it was 97.2 µM; in the experiment on HT55, above 100 µM; with HUH1, 66.8 µM; in the experiment on HUH7, 60 µM; in the experiment on JHH1 it was above 100 µM. Moreover, the IC50 in the experiment with JHH4 is 42.5 µM; in the experiment with JHH5 it was above 100 µM; in the experiment with JHH6 it was 67.7 µM; in the experiment with JHH7, 45.9 µM; in the experiment with K562, 44.2 µM; with KM12, 33.9 µM. The IC50 in the experiment on MDA-MB-435S was 98.8 µM; with MFM-223 it was 38 µM; with NCl-H2170, 84 µM; in the experiment on NCl-H526, above 100 µM; in the experiment with NCl-H661, 99.5 µM; in the experiment with NCl-H716, 43.8 µM. Besides, the IC50 in the experiment on SNU354 was 78.8 µM; in the experiment with SNU423 it was above 100 µM; in the experiment on SNU475 it was 81.3 µM; in the experiment with SNU886, 96.2 µM; in the experiment with T.T it was above 100 µM; in the experiment with TE-15 it was above 100 µM.
In the case of `Cc1ccc(F)c(NC(=O)Nc2ccc(-c3cccc4c3c(N)nn4C(=O)CCCCCNC(=O)C[C@H](N)C(=O)O)cc2)c1` [Compound 11], the IC50 in the experiment with 22RV1 is 90.1 µM; in the experiment with Alexander cells it was 79.5 µM; with HT55, above 100 µM; with HUH1, 50.6 µM; in the experiment with HUH7 it was 42.2 µM; in the experiment with JHH1, above 100 µM. Further, the IC50 came to 38.7 µM in the experiment with JHH4; 87.7 µM in the experiment on JHH5; 54.4 µM in the experiment with JHH6; 40 µM in the experiment with JHH7; 33.4 µM with K562; 28.5 µM with KM12. The IC50 in the experiment with MDA-MB-435S was 87.6 µM; in the experiment on MFM-223 it was 26.5 µM; with NCl-H2170 it was 72.8 µM; in the experiment with NCl-H526, 92.4 µM; in the experiment on NCl-H661, above 100 µM; in the experiment on NCl-H716 it was 82.2 µM. Also, the IC50 with SNU354 is 63.3 µM; in the experiment with SNU423 it was above 100 µM; in the experiment on SNU475 it was 76.1 µM; in the experiment on SNU886, above 100 µM; in the experiment with T.T it was above 100 µM; in the experiment on TE-15, above 100 µM.

Source of the values: US11351151B2, “Compound having anticancer activity and preparation method and application” (3D Medicines (Beijing) Co., Ltd., priority 2016, dated 2022).
